According to US20260200974A1, “PEPTIDE FOR CARTILAGE REGENERATION, AND USES THEREOF” (CAREGEN CO., LTD., priority 2022, published 2026):
Where a SMILES comes first, the peptide text is derived from it. Where no end group is shown, it is not given here.

Assays:
[1] = system: human adipose-derived mesenchymal stem cells (AD-MSC); test: SRB staining, cell morphology changes; type: cell-based; details: peptide at different concentrations, FIG. 1, FIG. 2
Procedure: Additionally, for SRB staining, after suctioning the medium from the plate, 60 μL of 3.7% formalin was added to the 96-well plate to be stained and fixed for 1 minute. After suctioning 3.7% formalin, 70 μL of SRB staining solution (sulforhodamine B sodium salt (sigma, S9012): 0.2 g in 100 mL DDW) was added and stained. The plate was covered with aluminum foil, blocked from light, and incubated overnight at room temperature. After washing with 100 μL of 1% acetic acid using a multi-pipette, it was dried and observed under a microscope. Meanwhile, in this example, the positive control group (CM) used was one containing dexamethasone (100 nM), […], proline (40 μM), TGFβ1 (10 ng/ml), and 1×ITS.

[2] = system: human adipose-derived mesenchymal stem cells (AD-MSC); test: CCK-8 assay, cytotoxicity; type: cell-based; details: 7 days, peptide at different concentrations, FIG. 3, FIG. 4
Procedure: Specifically, AD-MSC cells were seeded in 96-well plates at a density of 1.5×10^3 cells/well and cultured in Dulbecco's Modified Eagle's Medium (DMEM) supplemented with 10% FBS for 24 hours. Then, the medium was replaced with DMEM medium supplemented with 5% FBS, and Peptide-1 or Peptide-2 was treated at different concentrations, respectively. Subsequently, the medium was replaced every 3 days and Peptide-1 or Peptide-2 was treated at different concentrations, respectively. To confirm CCK-8 activity, after 7 days, CCK-8 (Dojindo, CCK-8 kit) solution was added at 1/10 volume of the culture medium, and incubated for 2 hours. The culture medium was sampled and CCK-8 activity was confirmed at a wavelength of 450 nm using a microplate reader.

With `CC(C)C[C@H](NC(=O)[C@@H](N)CCCNC(=N)N)C(=O)N[C@@H](CCCNC(=N)N)C(=O)N[C@@H](CO)C(=O)O` [Peptide-2, RLRS] (H-RLRS-OH) the “change in cell morphology in SRB staining” value [1] was “did not show any change in cell morphology” and the “toxicity toward adipose-derived mesenchymal stem cells (CCK-8 activity)” value [2] was “did not exhibit toxicity”.
LYRYEEHHE [Peptide-1, LYRYEEHHE] was tested, and the “change in cell morphology in SRB staining” value [1] was “did not show any change in cell morphology” and the “toxicity toward adipose-derived mesenchymal stem cells (CCK-8 activity)” value [2] was “did not exhibit toxicity”.
